Measured values as given in patent US20230312652A1, “NOVEL PEPTIDES AND USES THEREOF” (Aarhus Universitet, priority 2020, published 2023).
Where a SMILES comes first, the peptide text is derived from it.

Assays:
CREB [1] = test: CREB activation in striatum and hippocampus of wild-type mice after IV injection; type: in vivo, mouse; settings: 0.26 mg/kg IV, 1 hour after injection
Experimental: To assess this, 8 weeks old wild-type mice were injected intravenously with either 0.26 mg/kg of peptide P1 or LP1 dissolved in saline. 1 hour after the injection, the mice were sacrificed by cervical dislocation and striatal tissue was isolated by dissection and immediately lysed using a TissueLyser in lysis buffer containing cOmplete and DTT. The samples were subsequently homogenized by sonication. The phosphorylation of CREB on serine 133 was subsequently validated by western blotting. The levels of phosphorylated CREB were normalized to the corresponding beta-actin levels. Student's t-test was used for statistical analysis.

CREB [2] = test: CREB activation (phosphorylation on serine 133) in wild-type cortical neurons, western blotting; type: cell-based, mouse; settings: 20 minutes, 7 days in vitro
Experimental: (§1) To assess the ability of peptides P1, P2 and P6, respectively, to activate transcription factor CREB, cortical neurons were isolated from p0 wild-type mice and seeded in a density of 500.000 per well. After 7 days in vitro the neurons were stimulated with the different peptide variants at 1 uM in neurobasal A media and incubated at 37° C. and 5% C02 for 20 minutes. Hereafter, the neurons were lysed in lysis buffer containing DTT and cOmplete cocktail protease inhibitor and subsequently sonicated to disrupt the nuclear membrane. The phosphorylation of CREB on serine 133 was validated by western blotting normalized to beta-actin. As control, cells were stimulated with a scrambled peptide (Scr). Student's t-test was used for statistical analysis.
as §1, with “The” for “To assess the”, “peptide P1” for “peptides P1, P2”, “a linear peptide analog of P1 with acetylated N- and amidated C-terminals (referred to as LP1)” for “P6, respectively,”, “CREB was assessed. Cortical” for “CREB, cortical”, “20 nM” for “1 uM”, “CO2” for “C02”

[3] = tested on: AMPK (T172) and CREB (S133); test: P1 activation of AMPK and CREB with or without CaMKK2-inhibitor STO-609 in cortical neurons; type: cell-based, mouse; settings: 5 uM STO-609
Experimental: Mouse cortical neurons were isolated from p0 wild-type mice and seeded in a density of 250,000 per well in a 12-well tray. After 7 days in vitro the neurons were either pre-treated with STO-609 (5 uM) for 1 hour or with DMSO (control). After 1 hour, the neurons were stimulated with P1 or a scrambled peptide (Scr), with or without STO-609, in neurobasal A media and incubated at 37° C. and 5% CO2 for 20 minutes. Hereafter, the neurons were lysed in lysis buffer containing DTT and cOmplete cocktail protease inhibitor. Phosphorylation of AMPK (T172) and CREB (S133) was validated by western blotting and normalized to beta-actin.

CREB and AMPK = CREB and AMPK activation in brain of wild-type mice after subcutaneous injection; type: in vivo, mouse; settings: 3.6 mg/kg SC, separate study
Experimental: To assess the subcutaneous administration route of peptide P1, 8 weeks old wild-type mice were subcutaneously injected with different doses ranging between 0.13 to 26 mg/kg of peptide P1 dissolved in 4.38 mM L-His, 140 mM NaCl, 0.2% Tween-20 and 1500 IU hyaluronidase (pH 6.15). Likewise, was an earlier lead peptide constituting a linear version of P1 attached to a cell-penetrating moiety (P9, SEQ ID NO: 9), tested for its ability to activate CREB in both striatum and hippocampus (in a separate study) following subcutaneous injection with 3.6 mg/kg. 2 hours after injection the mice were sacrificed by cervical dislocation and striatal tissue was isolated by dissection and snap frozen in liquid nitrogen and stored at −80° C. until further use. To assess the activation of CREB and AMPK, the tissue was lysed using a TissueLyser in lysis buffer containing cOmplete and DTT. The samples were subsequently homogenized by sonication. The phosphorylation of CREB on serine 133 and threonine 172 on AMPK was subsequently validated by western blotting and the levels of were normalized to beta-actin. Student's t-test was used for statistical analysis.

[4] = tested on: GRN(+/-) cortical neurons; test: Survival of GRN-deficient cortical neurons, MTT assay; type: cell-based, mouse; settings: 1 uM on DIV7, 9, 11, 13 and 15; MTT at DIV16
cortical neurons = test: Survival of wild-type cortical neurons, MTT assay; type: cell-based, mouse; settings: for relative survival compared to control: 1 uM on DIV7, DIV9 and DIV11, MTT at DIV12
Experimental: Cortical neurons were isolated from p0 wild-type mice and seeded in a density of 50.000 in a 96-well plate pre-coated with poly-L and laminin and incubated at 37° C. in a 5% C02 atmosphere. At 7 days in vitro (DIV7) the neurons were treated by changing half the media with neurobasal A with B27 containing the peptides (P2, P4 or P6) to give a finale concentration of 1 uM and further incubated. The cortical neurons were treated in a likewise manner on DIV9 and DIV11. At DIV12 half the media was removed and 3-(4,5-dimethylthiazole-2-yl)-2,5-diphenyltetrazolium bromide (MTT) was added to the media to give a finale concentration of 0.5 mg/mL. MTT is reduced by mitochondrial enzymes in active cells to an insoluble product called formazan, which can be detected by colorimetry. Thus, the colour generated reflects activity and viable cells in the culture. The neurons were incubated for 4 hours with MTT and thereafter lysed in a 50% EtOH and 50% DMSO solution. To assure proper mixing of formazan, the plate was left to shake for 30 minutes before being measured at 570 nm and 650 nm. Student's t-test was used for statistical analysis.
Further, a drug-dose response on survival for peptide P1 was assessed in a similar manner.

SV2A = SV2A levels in wild-type neurons, western blotting; type: cell-based, mouse; settings: 0.1 uM or 1 uM from DIV8 for 3 days
Experimental: Hippocampal neurons were isolated from p0 wild-type mice and seeded in a density of 250,000 per well in 12-well trays precoated with poly-L and laminin. At DIV8 the neurons were treated with 0.1 uM or 1 uM P6 for 3 days. The neurons were lysed in RIPA buffer containing cOmplete and phosSTOP and SV2A levels were validated by western blotting, normalized to beta-actin.

hippocampal neurons = test: Neuronal branching in wild-type hippocampal neurons; type: cell-based, mouse; settings: DIV1 to DIV4
Experimental: Hippocampal neurons were isolated from p0 wild-type mice and seeded in a density of 10.000 per well in 24-well trays containing poly-D and laminin coated coverslips. At DIV1 the neurons were treated with 0.1 uM or 1 uM P6. BDNF (1 nM) was used as a positive control. At DIV4 the neurons were fixed and immunostained for MAP2, a marker of dendrites. Pictures of MAP2 were taken of neurites with 20 neurons pr. coverslip. The neurites may not be in contact with other neurites from other neurons. The pictures were analysed in Imaris Software. The number branches were counted manually.

[5] = tested on: spared nerve injury (SNI) model; test: Spared nerve injury mouse model, daily dosing, von Frey test; type: in vivo; settings: single SC dose daily for 8 days from 1 day post-SNI operation
Experimental: (§2) To assess the effect of peptide P3 on neuropathic pain, the spared nerve injury (SNI) model was used. The threshold for mechanical pain response is determined by testing with von Frey filaments of increasing bending force, which are repetitively pressed against the lateral area of the paw. Two baseline measurements were made before SNI operation. In brief, the common peroneal and tibial branches of the sciatic nerve were ligated and cut distally to the ligation, just distal to the branching of the sural nerve, which was left untouched. The mechanical allodynia was subsequently assessed with von Frey testing 17 days post-surgery. […] Student's t-test was used for statistical analysis.
Mice, surgery and von Frey testing was performed as in Example 28.
Student's t-test was used for statistical analysis.

[6] = tested on: spared nerve injury (SNI) model; test: Spared nerve injury mouse model, acute, von Frey test; type: in vivo; settings: single SC dose 17 days post-SNI operation
Experimental: as §2

[7] = target: mouse plasma (plasma proteins); test: plasma binding: 2 uM P1 in plasma, ultracentrifugation, LCMS
mouse brain homogenate = test: brain homogenate binding: 2 uM P1, ultracentrifugation, LCMS
[8] = target: human plasma (plasma proteins); test: plasma binding: 2 uM P1 in plasma, ultracentrifugation, LCMS; % Bound=100*(1-F/T4.5)

## CSCC[C@H](NC(C)=O)C(=O)N[C@H](C(=O)N[C@@H](CCC(=O)O)C(=O)N1CCC[C@H]1C(=O)N[C@H](C(=O)N[C@@H](CCC(=O)O)C(=O)N[C@@H](Cc1c[nH]cn1)C(=O)N[C@@H](CCC(=O)O)C(=O)N[C@@H](CCC(=O)O)C(=O)N[C@@H](CC(=O)O)C(=O)N[C@H](C(N)=O)C(C)C)C(C)C)[C@@H](C)O [LP1, Ac-MTEPVEHEEDV—NH2, reference compound] (Ac-MTEPVEHEEDV-NH2)
CREB [1]
  pCREB (S133) in hippocampus: increase phosphorylated CREB
  pCREB (S133) in striatum: increase phosphorylated CREB
CREB [2]; 20 nM
  activation of CREB (phosphorylation on serine 133) compared to scrambled peptide: activated CREB to a lesser extent

## O=C(O)c1ccc2c3c1cccc3c(=O)n1c3ccccc3nc21 [STO-609, reference compound]
[3]
  AMPK phosphorylation following STO-609-treatment: inhibition of AMPK

## YARAAARNARAEKEQEMTDPVDHDEDVQGAVQ (Linear peptide) [Peptide P9, reference compound]
CREB and AMPK
  pCREB in hippocampus: not able to notably activate CREB
  pCREB in striatum: not able to notably activate CREB

## [MIEPVEHEESR] [Peptide P4]
[4]
  relative survival compared to control: increased the relative survival
Cortical neurons
  relative survival compared to control: increased the relative survival

## [MIGSVEQEENA] [Peptide P6]
SV2A
  SV2A levels: increased SV2A levels
[4]
  relative survival compared to control: increased the relative survival
Cortical neurons
  relative survival compared to control: increased the relative survival
Hippocampal neurons; 0.1 uM
  neurite branching: increased neurite branching similar to BDNF
Hippocampal neurons; 1 uM
  neurite branching: increased neurite branching similar to BDNF
CREB [2]; 1 uM
  activation of CREB (phosphorylation on serine 133) compared to scrambled peptide: markedly activated CREB

## [MTAPVAHAEDV] [Peptide P3]
[5]
  neuropathic pain, von Frey test: continuously reduced the neuropathic pain
[6]
  neuropathic pain, von Frey test: attenuated the pain in an acute manner

## [MTDPVDHDEDV] [Peptide P2]
[4]
  relative survival compared to control: increased the relative survival
Cortical neurons
  relative survival compared to control: increased the relative survival
CREB [2]; 1 uM
  activation of CREB (phosphorylation on serine 133) compared to scrambled peptide: markedly activated CREB

B1: Cyclic peptide P1 (peptide)
peptide: MTEPVEHEEDV
modifications: Cyclic (backbone): head-to-tail cyclized via the M amino acid residue in position 1 and the V amino acid residue in position 11
[7]
  unbound in plasma: > 75%
Mouse brain homogenate
  brain homogenate binding: < 20%
[8]
  plasma binding: 20%

B2: BDNF (protein, UniProt P23560 19-247, looked up)
Neurotrophic factor BDNF …: APMKEANIRGQGGLAYPGVRTHGTLESVNGPKAGSRGLTSLADTFEHVIEELLDEDQKVRPNEENNKDADLYTSRVMLSSQVPLEPPLLFLLEEYKNYLDAANMSMRVRRHSDPARRGELSVCDSISEWVTAADKKTAVDMSGGTVTVLEKVPVSKGQLKQYFYETKCNPMGYTKEGCRGIDKRHWNSQCRTTQSYVRALTMDSKKRIGWRFIRIDTSCVCTLTIKRGR
notes: neurotrophic factor used as a positive control
Cortical neurons; BDNF as positive control
  survival in drug-dose response study: increased survival to a lesser extent than peptide P1
